US20250282799A1, “SUBSTITUTED PYRIDO[4,3-d]PYRIMIDINES AS KRAS MODULATORS” (Alterome Therapeutics, Inc., priority 2023, published 2025)

The compounds below were run on KRAS G12V dependent lung adenocarcinoma cell line, NCI-H441 (assay: Cellular pERK (Thr202/Tyr204) FRET/HTRF assay). Conditions: Homo sapiens, NCI-H441, pERK HTRF, NCI-H441 cells (KRAS G12V).
Type: cell-based
How it was run: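 NCI-H441 cells (KRAS G12V) were seeded and grown overnight at 37 °C, 5% CO2, then treated with compound in DMSO for 1 hr. Lysates were probed with a Eu3+-cryptate/d2 antibody sandwich against pERK1/2 Thr202/Tyr204 and read by HTRF at 665 nm; IC50 from curve fitting.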
In the case of [2H]C([2H])(Oc1nc(N2CCOC[C@H]3[C@H](F)[C@H]32)c2cnc(-c3cc(N)cc4cc(F)c(F)c(C#C)c34)c(F)c2n1)[C@@]12CCCN1C[C@H](F)C2 [Example 28, 5-Ethynyl-6,7-difluoro-4-(8-fluoro-4-((1S,7S,8S)-8-fluoro-5-oxa-2-azabicyclo[5.1.0]octan-2-yl)-2-(((2R,7aS)-2-fluorotetrahydro-1H-pyrrolizin-7a(5H)-yl)methoxy-d2)pyrido[4,3-d]pyrimidin-7-yl)naphthalen-2-amine], the IC50 is reported as < 0.05 µM. For [2H]C([2H])(Oc1nc(N2CCCC[C@H]3[C@H](F)[C@H]32)c2cnc(-c3cc(N)cc4cc(F)c(F)c(C#C)c34)c(F)c2n1)[C@@]12CCCN1C[C@H](F)C2 [Example 16, 5-Ethynyl-6,7-difluoro-4-(8-fluoro-4-((1S,7R,8S)-8-fluoro-2-azabicyclo[5.1.0]octan-2-yl)-2-(((2R,7aS)-2-fluorotetrahydro-1H-pyrrolizin-7a(5H)-yl)methoxy-d2)pyrido[4,3-d]pyrimidin-7-yl)naphthalen-2-amine], the IC50 was < 0.05 µM. [2H]C([2H])(Oc1nc(N2CCCC[C@H]3[C@H](F)[C@H]32)c2cnc(-c3cc(N)cc4ccc(F)c(C#C)c34)c(F)c2n1)[C@@]12CCCN1C[C@H](F)C2 [Example 82, 5-Ethynyl-6-fluoro-4-(8-fluoro-4-((1S,7R,8S)-8-fluoro-2-azabicyclo[5.1.0]octan-2-yl)-2-(((2R,7aS)-2-fluorotetrahydro-1H-pyrrolizin-7a(5H)-yl)methoxy-d2)pyrido[4,3-d]pyrimidin-7-yl)naphthalen-2-amine] was tested, and the IC50 was < 0.05 µM. [2H]C([2H])(Oc1nc(N2CCOC[C@H]3[C@H](F)[C@H]32)c2cnc(-c3cc(N)cc4ccc(F)c(C#C)c34)c(F)c2n1)[C@@]12CCCN1C[C@H](F)C2 [Example 87, 5-Ethynyl-6-fluoro-4-(8-fluoro-4-((1S,7S,8S)-8-fluoro-5-oxa-2-azabicyclo[5.1.0]octan-2-yl)-2-(((2R,7aS)-2-fluorotetrahydro-1H-pyrrolizin-7a(5H)-yl)methoxy-d2)pyrido[4,3-d]pyrimidin-7-yl)naphthalen-2-amine] was tested, and the IC50 was < 0.05 µM.
